# Earlier results as cited in patent US20110048980A1, “Fatty Acid Oxidation Inhibitors Treating Hyperglycemia and Related Disorders” (Symcopeia Company, priority 2007, published 2011).
# Columns and labels:
# [1] = pioglitazone added to other glucose lowering drugs, equivalent glucose-lowering
# [2] = in vivo
smiles,measurement,setting,value
CCc1ccc(CCOc2ccc(CC3SC(=O)NC3=O)cc2)nc1 (stereo not shown) [pioglitazone],increase in risk of congestive heart failure (CHF),[1],2-3 fold
CN(CCOc1ccc(CC2SC(=O)NC2=O)cc1)c1ccccn1 (stereo not shown) [rosiglitazone],"CHD events, relative risk","IGT patients, not statistically reduced, trend",1.37
same,increase in incidence of CHF,pre-diabetic population,7 fold
"COc1ccccc1OCC(O)CN1CCN(CC(=O)Nc2c(C)cccc2C)CC1 (stereo not shown) [Ranolazine, ranolazine]",QT interval effect,[2],causes QT interval prolongation
